Measured values published in patent US8759482B2, “Kinetically efficient substrate for lipoic acid ligase” (Massachusetts Institute of Technology, priority 2009, dated 2014).

Tests used:
[1] = biological target: T1, Escherichia coli lipoic acid ligase (Lp1A) (Escherichia coli, UniProt P32099); experiment: Lp1A-catalyzed lipoylation kinetics (kcat, Km) by HPLC; type: biochemical; settings: estimated, based on HPLC measurements
T1 sequence (P32099 1-338): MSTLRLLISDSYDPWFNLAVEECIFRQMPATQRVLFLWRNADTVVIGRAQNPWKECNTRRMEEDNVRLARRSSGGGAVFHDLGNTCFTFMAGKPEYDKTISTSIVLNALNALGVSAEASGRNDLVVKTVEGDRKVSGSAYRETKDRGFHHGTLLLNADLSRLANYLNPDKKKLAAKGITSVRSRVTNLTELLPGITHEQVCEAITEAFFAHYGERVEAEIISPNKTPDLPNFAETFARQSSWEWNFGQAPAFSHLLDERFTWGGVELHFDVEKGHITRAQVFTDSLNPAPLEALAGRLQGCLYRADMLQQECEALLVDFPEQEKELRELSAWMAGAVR
Experimental: Various concentrations of synthetic LAP2 peptide (not a fusion protein) were lipoylated with 50 nM Lp1A, 750 μM lipoic acid, and 3 mM ATP, and initial reaction rates were measured by HPLC. […] Measurements were performed in triplicate.
Using HPLC to quantify product formation, the kcat and Km values were measured for Lp1A-catalyzed lipoylation of a synthetic LAP2 peptide (without an attached fusion protein).
To measure the kcat and Km values for lipoylation, 50 nM Lp1A was combined with 750 μM lipoic acid, 2 mM ATP, and 5 mM magnesium acetate in DPBS. Varying concentrations of LAP2 (5.5, 11, 22, 44, 88, 176, or 352 μM) were used; 60 μL aliquots were removed from the 30° C. reactions at 5 min intervals, up to 20 min, and quenched with 180 mM EDTA (final concentration). HPLC was used to determine the amount of product in each aliquot, and kinetic parameters were extracted using the Michaelis-Menten equation as described previously.^13,28

Lp1A [2] = biological target: T2, Lp1A (Escherichia coli, UniProt P32099); experiment: Cell surface lipoylation of CFP-TM fusion constructs on mammalian cells; type: cell-based; settings: HEK cells, CFP-TM fusions, 1 μM Lp1A, 10 min
Experimental: FIG. 8 depicts cell surface lipoylation of LAP4.3 vs. LAP4.3D. HeLa cells expressing either LAP4.3-CFP-TM or LAP4.3D-CFP-TM were lipoylated with 1 μM Lp1A for 10 minutes. Lipoylation was detected with Alexa568-conjugated anti-lipoic acid antibody.
However, expression levels of intracellular proteins are similar, whether fused to a LAP sequence or E2p. […] Scale bar, 10 μm. […] Single cell mean fluorescein/CFP intensity ratios were tabulated for >160 cells from >18 fields of view.
Second, the LAPs were compared in a cell surface lipoylation assay (FIG. 9). CFP-TM fusion constructs were expressed in human embryonic kidney 293 (HEK) cells, and lipoylation was carried out by purified Lp1A enzyme added to the media. After 10 min of labeling, lipoylated cell surface proteins were imaged using antilipoic acid antibody. […] To quantitatively compare the labeling efficiencies of all the LAP sequences, lipoylation signal (as measured by antibody staining intensity) was plotted against CFP signal for single cells.

Lp1AW37A = Lp1AW37A (Escherichia coli, UniProt P32099, W38A); settings: HEK cells, Lp1AW37A and 11-Br 5 min, QD605-HaloTag 5 min
Experimental: QD605 emission is shown in the top row. Merged GFP and DIC (differential interference contrast) images are shown in the bottom row. Negative controls are shown with ATP or Lp1A omitted. Scale bars, 10 μm.
HEK 293T cells were transfected with LAP2-GFP-LDLR plasmid using Lipofectamine 2000. After 24 h in growth media (Dulbecco's Modified Eagle Medium (DMEM) with 10% fetal bovine serum (FBS)) at 37° C., enzymatic ligation of 11-Br was performed in DPBS containing 10 μM Lp1A(W37A), 500 μM 11-Br, 1 mM ATP, 5 mM Mg(OAc)2 and 1% (w/v) BSA (Fraction V, EMD) as a blocking agent for 5 min at room temperature. Cells were then rinsed three times with DPBS followed by treatment with 50 nM HaloTag-QD60531 in DPBS containing 1% BSA for 5 min at room temperature. After another three rinses with DPBS, cells were imaged in the same buffer on a Zeiss Axio Observer.Z1 inverted epifluorescence microscope using a 40X oil-immersion lens. […] Fluorescence images were normalized to the same intensity ranges.

Lp1A [3] = biological target: T2, Lp1A; settings: Azide 7 probe; cited from earlier work

Sequence of Lp1AW37A (P32099 whole entry W38A): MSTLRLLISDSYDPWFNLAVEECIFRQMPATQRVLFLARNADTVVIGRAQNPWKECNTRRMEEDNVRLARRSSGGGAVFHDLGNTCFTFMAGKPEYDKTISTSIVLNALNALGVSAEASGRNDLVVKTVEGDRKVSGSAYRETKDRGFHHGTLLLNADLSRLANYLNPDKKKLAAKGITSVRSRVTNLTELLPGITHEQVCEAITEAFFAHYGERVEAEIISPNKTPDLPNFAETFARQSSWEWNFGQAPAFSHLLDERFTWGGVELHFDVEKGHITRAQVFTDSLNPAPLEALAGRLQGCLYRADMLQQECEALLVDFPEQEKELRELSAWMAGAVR

In the case of DEVLVEIETDKAVLEVPGGEEE [LAP1], the Km [1] is reported as greater than 200 µM, the “cell surface lipoylation (antilipoic acid antibody imaging)” value (Lp1A [2]) is reported as “labeling was not detected” and the “QD605 labeling at the cell surface” value (Lp1AW37A) is reported as “undetectable”. The “kcat for Azide 7 ligation” value (Lp1A [3]) was 0.048 s⁻¹.
